Measured values published in patent US20090148424A1, “Reversibly immortalized mammalian liver cells and use thereof” (priority 2004, published 2009).

How the values were obtained:
CYNK-1 cell = test: Ganciclovir sensitivity of CYNK-1 cell (MTT assay); assay type: cell-based, human; conditions: one-week cultivation with 5 μM of GCV
Source text: (§1) Two hundred CYNK-1 cells (deposited with International Patent Organism Depository, National Institute of Advanced Industrial Science and Technology, address: AIST Tsukuba Central 6, 1-1, Higashi 1-Chome, Tsukuba-shi, Ibaraki-ken, 305-8566 Japan, deposited date: Mar. 10, 2004, accession number: FERM BP-08657) were inoculated in a 96-well plate, cultured in CS-C serum free culture medium alone or CS-C serum free culture media containing various concentrations of ganciclovir (5, 10, 20, 50 or 100 μM) and then cell proliferation was investigated by MTT assay (see Mcsmann T. J., Immunol. Methods, 65, 55, 1983).
Cell viability is shown in FIG. 7 as relative sensitivity. Ganciclovir sensitivity of the CYNK-1 cell (deposited with International Patent Organism Depository, National Institute of Advanced Industrial Science and Technology, address: AIST Tsukuba Central 6, 1-1, Higashi 1-Chome Tsukuba-shi, Ibaraki-ken, 305-8566 Japan, deposited date: Mar. 10, 2004, accession number: FERM BP-08657) depends on the concentration of ganciclovir.

reverted CYNK-1 cells = test: Ganciclovir sensitivity of reverted CYNK-1 cells; assay type: cell-based, human
Source text: as §1, with “[…].,” for “Mcsmann T. J.,”, “1983). […] All of the cells died within 10 days.” for “1983).”

Nc1nc(O)c2ncn(COC(CO)CO)c2n1 [GCV, ganciclovir]
effect on cell proliferation / viability (CYNK-1 cell): stopped cell proliferation and some of the cells died | time until all of the cells died (reverted CYNK-1 cells; 5 μM of GCV): ≤ 10 days | effect on cell proliferation / viability (reverted CYNK-1 cells; one-week cultivation in the presence of 5 μM of GCV): stopped cell proliferation and some of the cells died
